“Also recorded” adds a separate entry of the source.
How the values were obtained:
[1] = tested on: STAT signaling pathway; test: Western blot, STAT pathway; format: cell-based, human; details: for STAT3 pathway (pSTAT3): Example 8, 24 hours, actives 3-5 μmol/L, inactives 30-50 μmol/L
Description: (§1) For Western blot analysis, cell lysates are harvested by addition of RIPA lysis buffers containing 25 mM Tris.HCl pH 7.6, 150 mM NaCl, 1% NP-40, 1% sodium deoxycholate, 0.1% SDS, 10 mM EDTA, 1 mM sodium orthovanadate, 0.1 mM sodium molybdate, 1 mM phenylmethylsulfonyl fluoride, 20 μg/mL aprotinin, and 5 μg/mL leupeptin. The cell lysates are harvested and processed as described in Madhunapantula, S. V. et al., Cancer Res, 2007, 67:3626-36. Treatment conditions: 1-1.5×10^6 melanoma cells are plated in 100 mm culture dishes, 48 h later, treated with leelamine (3-6 μmol/L) for 3 to 24 hours. Protein lysates are collected for Western blotting. The blots are probed with antibodies according to each supplier's recommendations: antibodies to total Akt, phospho-Akt (Ser473), total PRAS40, phospho-PRAS40 (Thr246), total CREB, phospho-CREB (Ser133), phospho-p70 S6 kinase (Thr389), total Erk1/2, phospho-Erk1/2 (Thr202/Tyr 204), total CDK2, phospho-CDK2 (Thr160), phospho-Rb (Ser807/811), total Stat, phospho-Stat1 (Tyr701), Phospho-Stat-2(Tyr690), Phospho-Stat3(Ser727), phospho-Stat3(Tyr705) and cleaved PARP from Cell Signaling Technology (Danvers, Mass.); total PRAS40 from Invitrogen (Carlsbad, Calif.); cyclin D1, Bcl-2, α-enolase and secondary antibodies conjugated with horseradish peroxidase from Santa Cruz Biotechnology (Santa Cruz, Calif.). Immunoblots are developed using the enhanced chemiluminescence (ECL) detection system (Thermo Fisher Scientific, Rockford, Ill.). Intensity of protein bands is quantified using ImageJ software.
(§2) For Western blot analysis, 1×10^6 melanoma cells are plated in 100 mm culture dishes, 48 hours later, treated with empty liposomes or Nanolipolee-007 (3-6 μmol/L) for 3 to 24 hours. Protein lysates collected for Western blotting. The cell lysates are harvested in an RIPA lysis buffer containing protease and phosphatases inhibitors (Pierce Biotechnology, Rockford, Ill.). Blots are probed with antibodies according to each supplier's recommendations: antibodies to total Akt, phospho-Akt (Ser473), total PRAS40, phospho-PRAS40 (Thr246), total Bad, pBad (Ser 112) total Erk1/2, phospho-Erk1/2 (Thr202/Tyr 204), total CDK2, phospho-CDK2 (Thr160), phospho-Rb (Ser807/811), total Stat, phospho-Stat3 (Tyr705), caspase-3 and cleaved PARP from Cell Signaling Technology (Danvers, Mass.); total PRAS40 from Invitrogen (Carlsbad, Calif.); cyclin D1, α-enolase and secondary antibodies conjugated with horseradish peroxidase from Santa Cruz Biotechnology (Santa Cruz, Calif.). Immunoblots are developed using the enhanced chemiluminescence (ECL) detection system (Thermo Fisher Scientific, Rockford, Ill.). Intensity of protein bands is quantified using ImageJ software.
(§3) Cell lysates are harvested by addition of RIPA lysis buffers containing 25 mM Tris*HCl pH 7.6, 150 mM NaCl, 1% NP-40, 1% sodium deoxycholate, 0.1% SDS, 10 mM EDTA, 1 mM sodium orthovanadate, 0.1 mM sodium molybdate, 1 mM phenylmethylsulfonyl fluoride, 20 μg/mL aprotinin, and 5 μg/mL leupeptin. The cell lysates are harvested and processed as described. […] Protein lysates collected for Western blotting. […] Intensity of protein bands is quantified using ImageJ software. […]

[2] = tested on: MAPK signaling pathway; test: Western blot, MAPK pathway; format: cell-based, human; details: for MAPK pathway (pERK1/2, pCDK2): Example 8, 24 hours, actives 3-5 μmol/L, inactives 30-50 μmol/L
Description: as §1, §2, §3

[3] = 3 to 6 μmol/L for 3 to 24 hours, UACC 903 and 1205 Lu

CC(C)C1=CC2=CCC3[C@](C)(CCC[C@@]3(C)C(=O)O)C2CC1 (stereo partly drawn) [Abietic acid, (1R,4aR)-1,4a-dimethyl-7-(propan-2-yl)-1,2,3,4,4a,4b,5,6,10,10a-decahydrophenanthrene-1-carboxylic acid, reference compound]
STAT3 pathway (pSTAT3) [1]: unable to affect
MAPK pathway (pERK1/2, pCDK2) [2]: unable to affect

CC(C)C1=CC2=CCC3[C@](C)(CN)CCC[C@]3(C)C2CC1 (stereo partly drawn) [Compound 4a, {[(1R,4aR)-1,4a-dimethyl-7-(propan-2-yl)-1,2,3,4,4a,4b,5,6,10,10a-decahydrophenanthren-1-yl]methyl}amine]
STAT3 pathway (pSTAT3) [1]: decrease pSTAT3 expression at all doses
MAPK pathway (pERK1/2, pCDK2) [2]: Dose dependent reduction of pERK1/2 and pCDK2

CC(C)c1ccc2c(c1)CCC1[C@](C)(CNC(=O)C(F)(F)F)CCC[C@]21C (stereo partly drawn) [Compound 5a, N-{[(1R,4aS)-1,4a-dimethyl-7-(propan-2-yl)-1,2,3,4,4a,9,10,10a-octahydrophenanthren-1-yl]methyl}-2,2,2-trifluoroacetamide]
STAT3 pathway (pSTAT3) [1]: decrease pSTAT3 expression at all doses
MAPK pathway (pERK1/2, pCDK2) [2]: Dose dependent reduction of pERK1/2 and pCDK2

CC(C)c1ccc2c(c1)CCC1[C@](C)(CN)CCC[C@]21C (stereo partly drawn) [Leelamine, [(1R,4aS)-1,4a-dimethyl-7-(propan-2-yl)-1,2,3,4,4a,9,10,10a-octahydrophenanthren-1-yl]methanamine]
STAT pathway signaling [1, 3]: decrease activity
STAT3 pathway (pSTAT3) [1]: completely blocked pSTAT3 expression; also recorded: decrease pSTAT3 expression at all doses
MAP kinase pathway signaling [2, 3]: decrease activity
MAPK pathway (pERK1/2, pCDK2) [2]: blocks activation of ERK1/2; also recorded: Dose dependent reduction of pERK1/2 and pCDK2

Reference: patent publication US9839618B2, “Compositions and methods relating to proliferative diseases” (The Penn State Research Foundation, priority 2010, dated 2017)
